Paper PMC9768754, “Enriching Chemical Space of Bioactive Scaffolds by New Ring Systems: Benzazocines and Their Metal Complexes as Potential Anticancer Drugs” (Inorganic Chemistry, 2022)
Where two headings read alike, the source gives them in different places.

Experiments:
[1] = Stability in aqueous solution containing 1% DMSO by UV-vis spectroscopy; assay type: physicochemical; details: over 48 h
Description: The stability of ligands HL^2 and HL^3 in aqueous solution containing 1% DMSO over 24 and 48 h was monitored by UV–vis spectroscopy (Figure S30 in the Supporting Information). Similarly, the behavior of complexes 1a and 1b as well as 2 and 3 was investigated in aqueous solutions containing 1% DMSO over 12 and 48 h by optical spectroscopy (Figures S31 and S32). […] High thermodynamic and kinetic stability of five-coordinate complexes reported herein can presumably be explained in terms of hard and soft acids and bases theory. Cu^2+ as a borderline metal ion is expected to bind to a soft base, for example, S atom instead of terminal N atom, as is the case for thiosemicarbazides. However, the hard–soft character of the metal ion might be altered by the other ligands attached due to symbiotic effects.[30] This might be the case herein, where bonding of copper(II) to four hard base ligands, namely, to two N atoms (N7 and N15 in Figure 1) and two Cl^– co-ligands, as well as to one borderline base N(pyridine) atom, can reduce the softness of Cu^2+, leading to increased stability of the complexes.

HCT116 = experiment: MTT cytotoxicity assay, monolayer culture; assay type: cell-based, human; details: 72 h continuous drug action, 2D monolayer, read-out: IC50 (μM) ± S.D. HCT116
Text: (§1) The cytotoxicity of metal-free indolobenzazocines HL^1–HL^5 and their metal complexes 1a, 1b, and 2–5 was investigated by the colorimetric MTT assay in a panel of four human cancer cell lines, namely, human colon carcinoma HCT116 and LS-174, breast adenocarcinoma MDA-MB-361, and lung adenocarcinoma A549, as well as in human non-malignant cell line MRC-5 maintained as monolayer culture. Cisplatin or cis-diamminedichloridoplatinum(II) (CDDP), a well-known chemotherapeutic agent, was used as a positive control. The results obtained after 72 h of continuous drug action are presented as IC50 values (μM) in Table 1.
(§2) Human tumor cell lines derived from human colorectal carcinoma, LS-174 and HCT116, human breast adenocarcinoma, MDA-MB-361, human lung adenocarcinoma, A549, and non-tumor human fetal lung fibroblast cell line, MRC-5, were maintained as a monolayer culture in the Roswell Park Memorial Institute (RPMI) 1640 nutrient medium (Sigma Chemicals Co, USA). RPMI 1640 medium was prepared in sterile ionized water, supplemented with penicillin (100 IU/mL), streptomycin (200 μg/mL), 4-(2-hydroxyethyl) piperazine-1-ethanesulfonic acid (HEPES) (25 mM), L-glutamine (3 mM), and 10% of heat-inactivated fetal calf serum (FCS) (pH = 7.2). The cells were grown at 37 °C in a humidified atmosphere containing 5% CO2.
(§3) Cells were seeded into 96-well culture plates (Thermo Scientific Nunc) at cell densities of 5000 cells per well (HCT116, A549, and MRC-5) and 8000 cells/well (LS-174 and MDA-MB-361) in 100 μL of cell culture medium and left overnight. Eleven tested compounds were dissolved in DMSO to the stock concentration of 20 mM immediately before the experiment, whereas further dilutions were made in the culture medium so that the final concentration of DMSO never exceeded 1% (v/v). Cisplatin (cis-diamminedichloridoplatinum(II), CDDP) was used as a reference compound. After 72 h of continuous incubation, MTT solution (3-(4.5-dimethylthiazol-2-yl)-2.5-diphenyltetrazolium bromide, Sigma-Aldrich) was added to each well (5 mg/mL).[63] The culture plates were incubated at 37 °C for the next 4 h, and finally, 10% sodium dodecyl sulfate (SDS) was added to dissolve formed formazan crystals. Absorbances were measured after 24 h on a microplate reader (Thermo Labsystems Multiscan EX 200–240 V) at a wavelength of 570 nm.

MDA-MB-361 = experiment: MTT cytotoxicity assay, monolayer culture; assay type: cell-based, human; details: 72 h continuous drug action, 2D monolayer, read-out: IC50 (μM) ± S.D. MDA-MB-361
Text: as §1, §2, §3

A549 = experiment: MTT cytotoxicity assay, monolayer culture; assay type: cell-based, human; details: 2D monolayer, read-out: IC50 (μM) ± S.D. A549
Text: as §1, §2, §3

LS-174 = experiment: MTT cytotoxicity assay, monolayer culture; assay type: cell-based, human; details: 2D monolayer, read-out: IC50 (μM) ± S.D. LS-174
Text: as §1, §2, §3

MRC-5 = experiment: MTT cytotoxicity assay, monolayer culture; assay type: cell-based, human; details: non-malignant cell line, read-out: IC50 (μM) ± S.D. MRC-5
Text: as §1, §2, §3

[2] = Solubility in water/1% DMSO; assay type: physicochemical
LS-174 MCTS = experiment: MTT assay in 3D multicellular tumor spheroid (MCTS) model; assay type: cell-based, human; details: 3D MCTS, 72 h continuous drug action, read-out: IC50 (μM) ± S.D. LS-174, 3D cell culture model
Text: (§4) Due to the complex tissue environment, 3D multicellular tumor spheroid (MCTS) models mimic the in vivo architecture closer than 2D cell cultures, thereby allowing more precise prediction of effectiveness of organic drug candidates as well as metal-based ones in animal models.[41]−[44] The efficacy of HL^5, 5, and cisplatin in the 3D MCTS model was investigated in two human colorectal cancer cell lines (CRC) LS-174 and HCT116. We used ultra-low attachment (ULA) plates for the growth of spheroids. Spheroids were incubated for 72 h and then photographed, and IC50 values were determined using MTT assay. Tumor spheroids of diameter >500 μm selected for treatment reflect to a certain extent the tumor complexity as they are composed of several specialized areas and layers where cells show different phenotypic, functional, and metabolic behaviors.[45] They display an organized architecture with an external layer composed of proliferating cells, an intermediate zone composed of quiescent and senescent cells, and an inner apoptotic and necrotic core which is the result of the reduced distribution of nutrients and oxygen in these areas.[46],[47]
(§5) The MCTSs as 3D cell culture models were established by seeding cells at optimized densities between 500 and 1500 cells/well in the ultra-low attachment (ULA) U96-well plate Thermo Scientific Nunclon Sphera in their respective culture media.[34] […]

HCT116 MCTS = experiment: as above; assay type: cell-based, human; details: 3D MCTS, 72 h continuous drug action, read-out: IC50 (μM) ± S.D. HCT116, 3D cell culture model
Text: as §4, §5

HCT116 cells = experiment: Annexin V-FITC/PI apoptosis assay by flow cytometry; assay type: cell-based, human; details: HCT116, 48 h, 3× IC50; non-treated control 2.29%
Text: The obtained experimental data are presented in Figure 4 as percentages of early apoptotic cells (Annexin V-positive/PI-negative staining), late apoptotic and necrotic cells (Annexin V-positive/PI-positive staining), and dead cells (Annexin V-negative/PI-positive staining). By the current test (BD Pharmingen protocol)[39] for the cells which are already dead (Annexin V-negative/PI-positive staining), we cannot distinguish between types of the occurred cell death.
Quantitative analysis of apoptotic and necrotic cell death induced by the investigated complexes and CDDP was performed by Annexin V-FITC/PI assay. 2 × 10^5 HCT116 or 3 × 10^5 LS-174 cells were seeded into six-well plates (Thermo Scientific Nunc), and after 24 h of growth, cells were treated with tested compounds or CDDP. Following the 24 h and 48 h incubation time, cells were harvested and resuspended in 200 μL 1 × Binding Buffer (10 mM HEPES/NaOH pH 7.4, 140 mM NaCl, 2.5 mM CaCl2). 100 μL of the cell suspension (∼1 × 10^5 cells) was transferred to a 5 mL round-bottom polystyrene tube (Falcon, Corning) and mixed with 5 μL of both FITC Annexin V (BD Pharmingen[39]) and PI (50 μg/mL in PBS).[65] […] Samples were analyzed using an FACS BD Calibur flow cytometer (Becton–Dickinson, Heidelberg Germany) and Cell Quest computer software.

| SMILES | stability by UV-vis absorption spectra [1] | IC50 (HCT116) [µM] | IC50 (MDA-MB-361) [µM] | IC50 (A549; 72 h continuous drug action) [µM] | IC50 (LS-174; 72 h continuous drug action) [µM] | IC50 (MRC-5; 72 h continuous drug action) [µM] | Solubility in water/1% DMSO [2] [mg mL^–1] | IC50 (LS-174 MCTS) [µM] | IC50 (HCT116 MCTS) [µM] | early apoptotic cells (Annexin V-positive/PI-negative) (HCT116 cells) [%] | IC50 (A549; Homo sapiens, A549, 72 h continuous drug action) [µM] | IC50 (LS-174; Homo sapiens, LS174, 72 h continuous drug action) [µM] | IC50 (MRC-5; Homo sapiens, MRC5, 72 h continuous drug action) [µM] |
| --- | --- | --- | --- | --- | --- | --- | --- | --- | --- | --- | --- | --- | --- |
| Cc1ccc(C(C)C)cc1.O=C1NCCc2ccccc2-c2[nH]c3ccc([N+]4=Cc5cccc[n+]5[Ru-]4[Cl])cc3c21.[Cl-] [1a] | remained intact | 32.9 ± 7.1 | 91.2 ± 3.5 | 160 ± 18.2 | > 200 | 89.8 ± 2.1 | – | – | – | – | – | – | – |
| Cc1ccc(C(C)C)cc1.O=C1NCCc2ccccc2-c2[nH]c3ccc([N+]4=Cc5cccc[n+]5[Os-]4[Cl])cc3c21.[Cl-] [1b] | remained intact | 40.2 ± 6.7 | 71.9 ± 2.6 | 91 ± 9.3 | 182 ± 2.1 | 84.8 ± 6.6 | ≥ 1.0 | – | – | – | – | – | – |
| N.N.[Cl][Pt][Cl] [CDDP, cis-diamminedichloridoplatinum(II), reference compound] | – | 13.6 ± 1.1 | 26.4 ± 3.7 | 17.4 ± 3.5 | 19 ± 0.5 | 8 ± 1.1 | – | 17.8 ± 1.2 | 19.6 ± 2.2 | 19.14 | – | – | – |
| O=C1NCCc2ccccc2-c2[nH]c3ccc(/N=C/c4ccccn4)cc3c21 [HL^1] | – | – | – | – | – | – | – | – | – | – | > 200 | 191 ± 5.8 | 168 ± 15.8 |
